Bridge positions count the residues as written; N and C are the ends. Square brackets hold non-standard residues; d marks the D form. Peptide text beside a SMILES is read from it. * marks the point of attachment. Phe(4-CH2CH2COOH) = N[C@@H](Cc1ccc(CCC(=O)O)cc1)C(=O)O; Trp(βS-Me) = C[C@@H](c1c[nH]c2ccccc12)[C@H](N)C(=O)O; Phe(4-COOH) = N[C@@H](Cc1ccc(C(=O)O)cc1)C(=O)O; Bip = N[C@@H](Cc1ccc(-c2ccccc2)cc1)C(=O)O; Phe(3-Me) = Cc1cccc(C[C@H](N)C(=O)O)c1; Val(3-F) = CC(C)(F)[C@H](N)C(=O)O; Cha = N[C@@H](CC1CCCCC1)C(=O)O; Cit = NC(=O)NCCC[C@H](N)C(=O)O; Carboxymethyl = O=C(O)C*; Orn = NCCC[C@H](N)C(=O)O; Aun = NCCCCCCCCCCC(=O)O; Dab = NCC[C@H](N)C(=O)O; Ac3c = NC1(C(=O)O)CC1; Piv = CC(C)(C)C(=O)*
Biological target: T1, PD-1/PD-L1 interaction (PE-labeled human PD-L1-Ig binding to Jurkat cell line over-expressing human PD-1) (Homo sapiens, UniProt Q15116)
T1 construct: expressed in transfected cells; host or cells: Jurkat
Experiment: Jurkat-PD-1 Cell Binding High-Content Screening Assay (CBA)
Type: cell-based
Settings: Jurkat cell line over-expressing human PD-1; PE-labeled PD-L1-Ig 20 nM final; read-out: Jurkat hPD1-PDL1 IC50
Method in brief: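 Jurkat cells over-expressing human PD-1 (8×10^3 per well, DMEM/10% FCS) preincubated with compound 2 h at 37° C, then PE-labeled human PD-L1-Ig (20 nM final) added for 1 h. Cells fixed with paraformaldehyde, Hoechst-stained, and bound fluorescence quantified by high-content imaging.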

T1 sequence (Q15116 25-288): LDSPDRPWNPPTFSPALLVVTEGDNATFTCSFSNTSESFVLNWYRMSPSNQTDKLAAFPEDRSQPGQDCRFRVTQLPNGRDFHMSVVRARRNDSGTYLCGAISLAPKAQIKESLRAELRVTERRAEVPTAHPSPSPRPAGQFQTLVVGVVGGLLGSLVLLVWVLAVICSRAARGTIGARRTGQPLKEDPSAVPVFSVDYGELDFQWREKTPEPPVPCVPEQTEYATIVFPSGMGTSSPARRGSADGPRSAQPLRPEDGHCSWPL

Row | Structure (SMILES) | IC50 [nM]
1 | Cc1cccc(C[C@@H]2NC(=O)[C@H](CC(=O)O)NC(=O)[C@H](Cc3ccc(OCC(=O)O)cc3)NC(=O)[C@H](CCCNC(=N)N)NC(=O)CSC[C@@H](C(=O)N[C@@H](CCN)C(=O)NCCCCCCCCCCC(=O)O)NC(=O)[C@H]([C@@H](C)O)NC(=O)[C@H](C(C)C)NC(=O)[C@H](CC3CCCCC3)NC(=O)[C@H](CCN)NC(=O)[C@@H](CC(C)C)NC(=O)[C@H](CCCN)NC(=O)[C@H](CCCNC(N)=O)NC(=O)[C@H](Cc3ccc(-c4ccccc4)cc3)NC(=O)[C@H](C(C)(C)F)NC2=O)c1 [Compound 2124] ({CH2CO}-RY(Carboxymethyl)D[Phe(3-Me)][Val(3-F)][Bip][Cit][Orn][dL][Dab][Cha]VTC[Dab][Aun]-OH; thioether N-14) | 17.3
2 | Cc1cccc(C[C@@H]2NC(=O)[C@H](CC(=O)O)NC(=O)[C@H](Cc3ccc(OCC(=O)O)cc3)NC(=O)[C@H](CCCNC(=N)N)NC(=O)CSC[C@@H](C(=O)N[C@@H](CCN)C(=O)NCCCCCCCCCCC(=O)O)NC(=O)[C@H]([C@@H](C)O)NC(=O)[C@H](C(C)C)NC(=O)[C@H](CC3CCCCC3)NC(=O)[C@H](CCN)NC(=O)[C@@H](CC(C)C)NC(=O)[C@H](CCCN)NC(=O)[C@H](Cc3ccc(O)cc3)NC(=O)[C@H](Cc3ccc(-c4ccccc4)cc3)NC(=O)[C@H](C(C)(C)F)NC2=O)c1 [Compound 2125] ({CH2CO}-RY(Carboxymethyl)D[Phe(3-Me)][Val(3-F)][Bip]Y[Orn][dL][Dab][Cha]VTC[Dab][Aun]-OH; thioether N-14) | 16.4
3 | Cc1cccc(C[C@@H]2NC(=O)[C@H](CC(=O)O)NC(=O)[C@H](Cc3ccc(OCC(=O)O)cc3)NC(=O)[C@H](CCCNC(=N)N)NC(=O)CSC[C@@H](C(=O)N[C@@H](CCN)C(=O)NCCCCCCCCCCC(=O)O)NC(=O)[C@H]([C@@H](C)O)NC(=O)[C@H](C(C)(C)F)NC(=O)[C@H](CC3CCCCC3)NC(=O)[C@H](CCN)NC(=O)[C@@H](CC(C)C)NC(=O)[C@H](CCCN)NC(=O)[C@H](Cc3ccc(O)cc3)NC(=O)[C@H](Cc3ccc(-c4ccccc4)cc3)NC(=O)[C@H](Cc3ccc(O)cc3)NC2=O)c1 [Compound 2126] ({CH2CO}-RY(Carboxymethyl)D[Phe(3-Me)]Y[Bip]Y[Orn][dL][Dab][Cha][Val(3-F)]TC[Dab][Aun]-OH; thioether N-14) | 35.7
4 | Cc1cccc(C[C@@H]2NC(=O)[C@H](CC(=O)O)NC(=O)[C@H](Cc3ccc(OCC(=O)O)cc3)NC(=O)[C@H](CCNC(=O)C(C)(C)C)NC(=O)CSC[C@@H](C(=O)N[C@@H](CCN)C(=O)NCCCCCCCCCCC(=O)O)NC(=O)[C@H]([C@@H](C)O)NC(=O)[C@H](C(C)C)NC(=O)[C@H](CC3CCCCC3)NC(=O)[C@H](CCN)NC(=O)[C@@H](CC(C)C)NC(=O)[C@H](CCCN)NC(=O)[C@H](Cc3ccc(OCC(=O)O)cc3)NC(=O)[C@H](Cc3ccc(-c4ccccc4)cc3)NC(=O)[C@H](Cc3ccc(C(=O)O)cc3)NC2=O)c1 [Compound 2127] ({CH2CO}-[Dab](Piv)Y(Carboxymethyl)D[Phe(3-Me)][Phe(4-COOH)][Bip]Y(Carboxymethyl)[Orn][dL][Dab][Cha]VTC[Dab][Aun]-OH; thioether N-14) | 28.4
5 | Cc1cccc(C[C@@H]2NC(=O)[C@H](CC(=O)O)NC(=O)[C@H](Cc3ccc(OCC(=O)O)cc3)NC(=O)[C@H](CCNC(=O)C(C)(C)C)NC(=O)CSC[C@@H](C(=O)N[C@@H](CCN)C(=O)NCCCCCCCCCCC(=O)O)NC(=O)[C@H](CCC(N)=O)NC(=O)[C@H](C(C)C)NC(=O)[C@H](CC3CCCCC3)NC(=O)[C@H](CCN)NC(=O)[C@@H](CC(C)C)NC(=O)[C@H](CCCN)NC(=O)[C@H](Cc3ccc(OCC(=O)O)cc3)NC(=O)[C@H](Cc3ccc(-c4ccccc4)cc3)NC(=O)[C@H](Cc3ccc(C(=O)O)cc3)NC2=O)c1 [Compound 2128] ({CH2CO}-[Dab](Piv)Y(Carboxymethyl)D[Phe(3-Me)][Phe(4-COOH)][Bip]Y(Carboxymethyl)[Orn][dL][Dab][Cha]VQC[Dab][Aun]-OH; thioether N-14) | 10.6
6 | Cc1cccc(C[C@@H]2NC(=O)[C@H](CC(=O)O)NC(=O)[C@H](Cc3ccc(OCC(=O)O)cc3)NC(=O)[C@H](CCCNC(=N)N)NC(=O)CSC[C@@H](C(=O)N[C@@H](CCN)C(=O)NCCCCCCCCCCC(=O)O)NC(=O)[C@H](CCC(N)=O)NC(=O)[C@H](C(C)C)NC(=O)[C@H](CC3CCCCC3)NC(=O)[C@H](CCN)NC(=O)[C@@H](CC(C)C)NC(=O)[C@H](CCCN)NC(=O)[C@H](Cc3ccc(OCC(=O)O)cc3)NC(=O)[C@H](Cc3ccc(-c4ccccc4)cc3)NC(=O)[C@H](Cc3ccc(CCC(=O)O)cc3)NC2=O)c1 [Compound 2129] ({CH2CO}-RY(Carboxymethyl)D[Phe(3-Me)][Phe(4-CH2CH2COOH)][Bip]Y(Carboxymethyl)[Orn][dL][Dab][Cha]VQC[Dab][Aun]-OH; thioether N-14) | 6
7 | Cc1cccc(C[C@@H]2NC(=O)[C@H](CC(=O)O)NC(=O)[C@H](Cc3ccc(OCC(=O)O)cc3)NC(=O)[C@H](CCCNC(=N)N)NC(=O)CSC[C@@H](C(=O)N[C@@H](CCN)C(=O)NCCCCCCCCCCC(=O)O)NC(=O)[C@H]([C@@H](C)O)NC(=O)[C@H](C(C)C)NC(=O)[C@H](CC3CCCCC3)NC(=O)[C@H](CCN)NC(=O)[C@@H](CC(C)C)NC(=O)[C@H](CCCN)NC(=O)[C@H](Cc3ccc(O)cc3)NC(=O)[C@H](Cc3ccc(-c4ccccc4)cc3)NC(=O)[C@H](Cc3ccc(OCC(=O)O)cc3)NC2=O)c1 [Compound 2130] ({CH2CO}-RY(Carboxymethyl)D[Phe(3-Me)]Y(Carboxymethyl)[Bip]Y[Orn][dL][Dab][Cha]VTC[Dab][Aun]-OH; thioether N-14) | 15.7
8 | Cc1cccc(C[C@@H]2NC(=O)[C@H](CC(=O)O)NC(=O)[C@H](Cc3ccc(OCC(=O)O)cc3)NC(=O)[C@H](CCCNC(=N)N)NC(=O)CSC[C@@H](C(=O)N[C@@H](CCN)C(=O)NCCCCCCCCCCC(=O)O)NC(=O)[C@H](CCC(N)=O)NC(=O)[C@H](C(C)C)NC(=O)[C@H](CC3CCCCC3)NC(=O)[C@H](CCN)NC(=O)[C@@H](CC(C)C)NC(=O)[C@H](CCCN)NC(=O)[C@H](Cc3ccc(O)cc3)NC(=O)[C@H](Cc3ccc(-c4ccccc4)cc3)NC(=O)[C@H](Cc3ccc(CCC(=O)O)cc3)NC2=O)c1 [Compound 2131] ({CH2CO}-RY(Carboxymethyl)D[Phe(3-Me)][Phe(4-CH2CH2COOH)][Bip]Y[Orn][dL][Dab][Cha]VQC[Dab][Aun]-OH; thioether N-14) | 5.8
9 | Cc1cccc(C[C@@H]2NC(=O)[C@H](CC(=O)O)NC(=O)[C@H](Cc3ccc(OCC(=O)O)cc3)NC(=O)[C@H](CCCNC(=N)N)NC(=O)CSC[C@@H](C(=O)NC3(C(=O)NCCCCCCCCCCC(=O)O)CC3)NC(=O)[C@H]([C@@H](C)O)NC(=O)[C@H](C(C)C)NC(=O)[C@H](CC3CCCCC3)NC(=O)[C@H](CCN)NC(=O)[C@@H](CC(C)C)NC(=O)[C@H](CCCN)NC(=O)[C@H](Cc3ccc(OCC(=O)O)cc3)NC(=O)[C@H](Cc3ccc(-c4ccccc4)cc3)NC(=O)[C@H](Cc3ccc(CCC(=O)O)cc3)NC2=O)c1 [Compound 2132] ({CH2CO}-RY(Carboxymethyl)D[Phe(3-Me)][Phe(4-CH2CH2COOH)][Bip]Y(Carboxymethyl)[Orn][dL][Dab][Cha]VTC[Ac3c][Aun]-OH; thioether N-14) | 11.5
10 | CC(C)C[C@H]1NC(=O)[C@H](CCCN)NC(=O)[C@H](Cc2ccc(O)cc2)NC(=O)[C@H](Cc2ccc(-c3ccccc3)cc2)NC(=O)[C@H](C(C)C)NC(=O)[C@H]([C@@H](C)c2c[nH]c3ccccc23)NC(=O)[C@H](CC(=O)O)NC(=O)[C@H](Cc2ccc(OCC(=O)O)cc2)NC(=O)[C@H](CCCNC(=N)N)NC(=O)CSC[C@@H](C(=O)NC2(C(=O)NCCCCCCCCCCC(=O)O)CC2)NC(=O)[C@H]([C@@H](C)O)NC(=O)[C@H](C(C)C)NC(=O)[C@H](CC2CCCCC2)NC(=O)[C@H](CCN)NC1=O [Compound 2133] ({CH2CO}-RY(Carboxymethyl)D[Trp(βS-Me)]V[Bip]Y[Orn][dL][Dab][Cha]VTC[Ac3c][Aun]-OH; thioether N-14) | 58.8
11 | CC(C)C[C@H]1NC(=O)[C@H](CCCN)NC(=O)[C@H](CCCNC(N)=O)NC(=O)[C@H](Cc2ccc(-c3ccccc3)cc2)NC(=O)[C@H](C(C)C)NC(=O)[C@H]([C@@H](C)c2c[nH]c3ccccc23)NC(=O)[C@H](CC(=O)O)NC(=O)[C@H](Cc2ccc(OCC(=O)O)cc2)NC(=O)[C@H](CCCNC(=N)N)NC(=O)CSC[C@@H](C(=O)NC2(C(=O)NCCCCCCCCCCC(=O)O)CC2)NC(=O)[C@H]([C@@H](C)O)NC(=O)[C@H](C(C)C)NC(=O)[C@H](CC2CCCCC2)NC(=O)[C@H](CCN)NC1=O [Compound 2134] ({CH2CO}-RY(Carboxymethyl)D[Trp(βS-Me)]V[Bip][Cit][Orn][dL][Dab][Cha]VTC[Ac3c][Aun]-OH; thioether N-14) | 38.5
12 | CC(C)C[C@H]1NC(=O)[C@H](CCCN)NC(=O)[C@H](Cc2ccc(OCC(=O)O)cc2)NC(=O)[C@H](Cc2ccc(-c3ccccc3)cc2)NC(=O)[C@H](Cc2ccc(OCC(=O)O)cc2)NC(=O)[C@H]([C@@H](C)c2c[nH]c3ccccc23)NC(=O)[C@H](CC(=O)O)NC(=O)[C@H](Cc2ccc(OCC(=O)O)cc2)NC(=O)[C@H](CCCNC(=N)N)NC(=O)CSC[C@@H](C(=O)NC2(C(=O)NCCCCCCCCCCC(=O)O)CC2)NC(=O)[C@H]([C@@H](C)O)NC(=O)[C@H](C(C)C)NC(=O)[C@H](CC2CCCCC2)NC(=O)[C@H](CCN)NC1=O [Compound 2135] ({CH2CO}-RY(Carboxymethyl)D[Trp(βS-Me)]Y(Carboxymethyl)[Bip]Y(Carboxymethyl)[Orn][dL][Dab][Cha]VTC[Ac3c][Aun]-OH; thioether N-14) | 68.8

— patent publication US20260022142A1, “MACROCYCLIC IMMUNOMODULATORS” (Bristol-Myers Squibb Company, priority 2022, published 2026)
